Ten compounds from patent US9796700B2 (Celgene CAR LLC, priority 2013, dated 2017) can be followed below.

Read-outs that look alike come from different tables or passages of the source.

Assay [1] deals with T1, Erk1 (Homo sapiens (Human), UniProt P27361). Nature of the assay: Protein Mass Modification Assay (intact protein MALDI). It counts as binding. The procedure, abridged:
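Percent covalent modification comes from the intact-protein MALDI centroid mass shift, treated versus control, divided by compound MW. Before analysis, human Erk1 was exposed to compound at 10-fold excess over protein for 60 min at room temperature.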
Target sequence in this assay (P27361 whole entry, looked up): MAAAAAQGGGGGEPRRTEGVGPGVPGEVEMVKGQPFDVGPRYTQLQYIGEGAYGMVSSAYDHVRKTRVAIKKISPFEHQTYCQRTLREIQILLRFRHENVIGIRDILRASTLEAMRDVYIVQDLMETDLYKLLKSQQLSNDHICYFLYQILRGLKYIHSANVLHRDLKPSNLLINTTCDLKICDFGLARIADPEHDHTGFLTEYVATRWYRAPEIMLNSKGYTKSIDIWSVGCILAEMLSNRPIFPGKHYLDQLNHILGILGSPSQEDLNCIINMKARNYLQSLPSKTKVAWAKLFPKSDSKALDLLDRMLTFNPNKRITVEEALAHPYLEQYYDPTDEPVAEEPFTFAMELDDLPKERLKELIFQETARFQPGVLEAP

Assay [2] has as its target T1, Erk1. Nature of the assay: Measurement of Erk occupancy with biotinylated covalent probe I-299. Particulars: HT-29 cells. It is filed as cell-based. As for the experimental part: Measurement of Erk Occupancy with Biotinylated Covalent Probe
This experiment measured occupancy of the ERK1 target by compounds according to the invention. This experiment was conducted using the Mesoscale Discovery test kit (Cat. #N45107B). One day before the assay, cells were split and added at 50,000 cells per well to a flat-bottom 96 well plate in 200 μl of growth medium. The next day, the medium was discarded, 100 μl medium containing test compound was added, and the plate was incubated at 37° C. for 120 minutes. The plate was rinsed once with PBS, and 50 μl lysis buffer with test compound was added. The plate was incubated at 4° C. for 30 min, and 30 μl of lysate was transferred to a plate to capture total and phosphor-Erk. Biotinylated probe I-299 was diluted in lysis buffer and added to each well to a final concentration of 0.2 μM. The plate was incubated for 2 hr under constant shaking at room temperature. The plate was washed 3 times with MSD wash buffer. To detect the biotinylated probe bonding, tagged streptavidin was added (MSD, Cat#R32AD-1) at 1 μg/ml, 25 μl/well, followed by a 60 min incubation under shaking. The plate was washed 3 times, 150 μl MSD Read Buffer (Cat#R61TX) was added and the plate was read in a plate reader manufactured by MSD. Percent occupancy by test compound at Erk was calculated by comparing the chemiluminescence readings from treated cells as compared to the chemiluminescence readings in untreated controls (which are defined as 100% probe bonding or 0% occupancy). The amount of covalent probe signal divided by the amount of ERK signal for samples with no test compound treatment represents the maximum probe signal (MPS). In samples treated with test compound prior to covalent probe, the ratio of probe signal to ERK signal (the test probe signal, TPS) was reduced by the degree of target occupancy by the test compound which blocks covalent probe binding. The difference between the MPS and the TPS, divided by the MPS gave the target occupancy by the test compound. This ratio was then expressed as a percent occupancy. Results from this assay are provided in Table A below under the column “Occupancy EC50 (nM) HT-29.”
Target sequence in this assay (P27361 2-379 limits assumed): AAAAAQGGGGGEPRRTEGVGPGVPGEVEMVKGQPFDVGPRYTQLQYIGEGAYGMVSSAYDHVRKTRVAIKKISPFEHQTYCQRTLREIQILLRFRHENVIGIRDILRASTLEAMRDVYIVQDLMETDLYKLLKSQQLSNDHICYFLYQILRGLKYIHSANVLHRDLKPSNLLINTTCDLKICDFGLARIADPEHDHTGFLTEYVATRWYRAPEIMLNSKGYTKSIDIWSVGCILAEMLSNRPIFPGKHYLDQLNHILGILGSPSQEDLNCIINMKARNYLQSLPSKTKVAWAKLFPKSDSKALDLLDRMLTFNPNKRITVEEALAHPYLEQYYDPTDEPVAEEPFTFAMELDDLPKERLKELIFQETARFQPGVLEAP

For the next assay, the target named is MEK1 activated ERK1 (Homo sapiens (Human), UniProt P27361). Put plainly: Omnia continuous-read kinase assay for potency against MEK1 activated ERK1. It is filed as biochemical. An outline of the steps: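 Apparent IC50 came from initial reaction slopes (RFU vs time) plotted against log inhibitor with a variable-slope fit. Reactions were started with ERK1 (4 nM final) added to 50 μM ATP, roughly at its appKM, and 10 μM Sox-conjugated ST17 peptide in 20 mM Tris pH 7.5, 5 mM MgCl2. Fluorescence was monitored every 71 seconds.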
MEK1 activated ERK1, sequence (P27361 whole entry): as the sequence (P27361 whole entry, looked up) above

Setting [3] is: MEK1 activated ERK1, WT, ATP at KM.

For the compound `C=CC(=O)Nc1ccccc1Nc1nc(N[C@@H]2CCC[C@H](C(N)=O)C2)ncc1C(F)(F)F` (racemic) [Compound I-2, Rac-cis-3-((4-((2-acrylamidophenyl)amino)-5-(trifluoromethyl)pyrimidin-2-yl)amino)cyclohexanecarboxamide], the “ERK1 Mass Mod (%)” value on Erk1 [1] is recorded as “E (provided a mass modification of ≧70%)”. Further, the EC50 (as a rule, the concentration needed to bring the measured effect to its halfway point) on Erk1 [2] is less than 100 nM.

`C=CC(=O)Nc1ccccc1Nc1nc(N[C@@H]2CCC[C@H](C(N)=O)C2)ncc1Cl` (racemic) [Compound I-102, Rac-cis-3-(4-(2-acrylamidophenylamino)-5-chloropyrimidin-2-ylamino)cyclohexane carboxamide]: the “ERK1 Mass Mod (%)” value on Erk1 [1] is listed as “E (provided a mass modification of ≧70%)”. On Erk1 [2], the EC50 is less than 100 nM. Further, the IC50 (usually the midpoint of a concentration-inhibition curve) on MEK1 activated ERK1 (setting [3]) is less than 100 nM.

`C=CC(=O)Nc1ccccc1Nc1nc(Nc2cc(C(N)=O)c(F)cc2C)ncc1C(F)(F)F` [Compound I-76, 5-((4-((2-Acrylamidophenyl)amino)-5-(trifluoromethyl)pyrimidin-2-yl)amino)-2-fluoro-4-methylbenzamide]: at Erk1 [1], the “ERK1 Mass Mod (%)” value is recorded as “E (provided a mass modification of ≧70%)”. For the same compound, on Erk1 [2], the EC50 was less than 100 nM. The IC50 on MEK1 activated ERK1 (setting [3]) was less than 100 nM.

On to `C=CC(=O)Nc1ccccc1Nc1nc(Nc2cc(CO)c(F)cc2C)ncc1C(F)(F)F` [Compound I-77, N-(2-((2-((4-Fluoro-5-(hydroxymethyl)-2-methylphenyl)amino)-5-(trifluoromethyl)pyrimidin-4-yl)amino)phenyl)acrylamide], for which the “ERK1 Mass Mod (%)” value on Erk1 [1] is “E (provided a mass modification of ≧70%)”. The 50% effective concentration (EC50) on Erk1 [2] was less than 100 nM. The concentration for half-maximal inhibition (IC50) at MEK1 activated ERK1 (setting [3]) was less than 100 nM.

For the compound `C=CC(=O)Nc1ccccc1Nc1nc(Nc2cc(S(N)(=O)=O)ccc2C)ncc1Cl` [Compound I-205, N-(2-((5-chloro-2-((2-methyl-5-sulfamoylphenyl)amino)pyrimidin-4-yl)amino)phenyl)acrylamide], on Erk1 [1], the “ERK1 Mass Mod (%)” value is recorded as “E (provided a mass modification of ≧70%)”. The compound also registered an EC50 on Erk1 [2] of less than 100 nM. The half-maximal inhibitory concentration (IC50) on MEK1 activated ERK1 (setting [3]) is less than 100 nM.

Regarding `C=CC(=O)Nc1cc(F)ccc1Nc1nc(Nc2cc(C(N)=O)ccc2C)ncc1Cl` [Compound I-206, 3-((4-((2-acrylamido-4-fluorophenyl)amino)-5-chloropyrimidin-2-yl)amino)-4-methylbenzamide], the “ERK1 Mass Mod (%)” value at Erk1 [1] is listed as “E (provided a mass modification of ≧70%)”. The compound further showed an EC50 at Erk1 [2] of less than 100 nM. Further, on MEK1 activated ERK1 (setting [3]), the IC50 is less than 100 nM.

In the case of `C=CC(=O)Nc1ccccc1Nc1nc(Nc2ccc(F)cc2C#N)ncc1Cl` [Compound I-211, N-(2-((5-chloro-2-((2-cyano-4-fluorophenyl)amino)pyrimidin-4-yl)amino)phenyl) acrylamide], at Erk1 [1], the “ERK1 Mass Mod (%)” value was “F (provided a mass modification of 31-69%)”. Further, the EC50 at Erk1 [2] was less than 100 nM. The IC50 on MEK1 activated ERK1 (setting [3]) is less than 100 nM.

As for `C=CC(=O)Nc1cc(F)ccc1Nc1nc(Nc2ccc(F)cc2C)ncc1Cl` [Compound I-212, N-(2-((5-chloro-2-((4-fluoro-2-methylphenyl)amino)pyrimidin-4-yl)amino)-5-fluorophenyl)acrylamide], on Erk1 [1], the “ERK1 Mass Mod (%)” value is “F (key: E: provided a mass modification of ≧70%; F: provided a mass modification of 31-69%; G: proived a mass modification ≦30%)”. For the same compound, the EC50 at Erk1 [2] is less than 100 nM. Moreover, the IC50 at MEK1 activated ERK1 (read-out: ERK1 Omnia WT ATP KM IC50) was less than 100 nM.

Regarding `C=CC(=O)Nc1ccccc1Nc1nc(Nc2cc(C(N)=O)c(F)cc2C)ncc1Cl` [Compound I-214, 5-((4-((2-acrylamidophenyl)amino)-5-chloropyrimidin-2-yl)amino)-2-fluoro-4-methylbenzamide], the “ERK1 Mass Mod (%)” value at Erk1 [1] is recorded as “F (provided a mass modification of 31-69%)”. The compound further yielded a concentration giving a half-maximal response (EC50) on Erk1 [2] of less than 100 nM. For the same compound, the 50% inhibitory concentration (IC50) on MEK1 activated ERK1 (setting [3]) is less than 100 nM.

For `C=CC(=O)Nc1ccccc1Nc1nc(Nc2cc(C(N)=O)ccc2C)ncc1Cl` [Compound I-319, 3-(4-(2-acrylamidophenylamino)-5-chloropyrimidin-2-ylamino)-4-methylbenzamide], the “ERK1 Mass Mod (%)” value on Erk1 [1] is given as “E (provided a mass modification of ≧70%)”. The same compound came in with a 50% effective concentration (EC50) on Erk1 [2] of less than 100 nM. The IC50 at MEK1 activated ERK1 (setting [3]) is less than 100 nM.
